From US20020035061A1, “COMPOSITIONS AND METHODS FOR TREATING INFECTIONS USING CATIONIC PEPTIDES ALONE OR IN COMBINATION WITH ANTIBIOTICS” (priority 1996, published 2002)

System: bacterial isolates
Test: microbe, parasite or virus in culture
Format: cell-based

KKWWRRALQGLKTAGPAIQSVLNK [MBI 21A2]
Peptide MIC Alone (1. Amikacin, A. baumannii ABI001): 8 µg/mL | Peptide MIC Alone (1. Amikacin, A. baumannii ABI003): 8 µg/mL | Peptide MIC Alone (1. Amikacin, E. faecalis EFS008): >128 µg/mL | Peptide MIC Alone (1. Amikacin, E. faecium EFM004): >128 µg/mL | Peptide MIC Alone (1. Amikacin, P. aeruginosa PA022): 8 µg/mL | Peptide MIC Alone (1. Amikacin, S. aureus SA025 MRSA): 2 µg/mL | Peptide MIC Alone (1. Amikacin, S. epidermidis SE003): >128 µg/mL | Peptide MIC Alone (1. Amikacin, S. maltophilia SMA018): 16 µg/mL | Peptide MIC Alone (1. Amikacin, S. maltophilia SMA022): >128 µg/mL | Peptide MIC Alone (3. Ciprofloxacin, P. aeruginosa PA4): >128 µg/mL | Peptide MIC Alone (3. Ciprofloxacin, P. aeruginosa PA41): 64 µg/mL | Peptide MIC Alone (3. Ciprofloxacin, S. aureus SA25): 16 µg/mL | Peptide MIC Alone (3. Ciprofloxacin, S. aureus SA93): 16 µg/mL | Peptide MIC Alone (4. Gentamicin, A. baumannii ABI002): 8 µg/mL | Peptide MIC Alone (4. Gentamicin, P. aeruginosa PA022): 8 µg/mL | Peptide MIC Alone (4. Gentamicin, S. aureus SA025 MRSA): 8 µg/mL | Peptide MIC Alone (4. Gentamicin, S. maltophilia SMA019): 16 µg/mL | Peptide MIC Alone (4. Gentamicin, S. maltophilia SMA020): 16 µg/mL | Peptide MIC Alone (4. Gentamicin, S. maltophilia SMA021): 16 µg/mL | Amikacin MIC + Peptide (A. baumannii ABI001): 32 µg/mL | Peptide MIC + Amikacin (A. baumannii ABI001): 0.125 µg/mL | Gentamicin MIC + Peptide (A. baumannii ABI002): 16 µg/mL | Peptide MIC + Gentamicin (A. baumannii ABI002): 0.5 µg/mL | Amikacin MIC + Peptide (A. baumannii ABI003): 8 µg/mL | Peptide MIC + Amikacin (A. baumannii ABI003): 4 µg/mL | Peptide MIC + Piperacillin (E. coli 1): 2 µg/mL | Piperacillin MIC + Peptide (E. coli 1): 8 µg/mL | Peptide MIC Alone (E. coli 1, Piperacillin section): 4 µg/mL | Amikacin MIC + Peptide (E. faecalis EFS008): 32 µg/mL | Peptide MIC + Amikacin (E. faecalis EFS008): 0.125 µg/mL | Amikacin MIC + Peptide (E. faecium EFM004): 64 µg/mL | Peptide MIC + Amikacin (E. faecium EFM004): 16 µg/mL | Peptide MIC + Piperacillin (H. influenzae 1): 64 µg/mL | Piperacillin MIC + Peptide (H. influenzae 1): 4 µg/mL | Peptide MIC Alone (H. influenzae 1, Piperacillin section): >128 µg/mL | Peptide MIC + Piperacillin (H. influenzae 2): 32 µg/mL | Piperacillin MIC + Peptide (H. influenzae 2): 32 µg/mL | Peptide MIC Alone (H. influenzae 2, Piperacillin section): >128 µg/mL | Peptide MIC + Piperacillin (P. aeruginosa 23): 16 µg/mL | Piperacillin MIC + Peptide (P. aeruginosa 23): 8 µg/mL | Peptide MIC Alone (P. aeruginosa 23, Piperacillin section): >128 µg/mL | Ciprofloxacin MIC + Peptide (P. aeruginosa PA4): 0.125 µg/mL | Peptide MIC + Ciprofloxacin (P. aeruginosa PA4): 64 µg/mL | Amikacin MIC + Peptide (P. aeruginosa PA022): 16 µg/mL | Gentamicin MIC + Peptide (P. aeruginosa PA022): 8 µg/mL | Peptide MIC + Amikacin (P. aeruginosa PA022): 2 µg/mL | Peptide MIC + Gentamicin (P. aeruginosa PA022): 2 µg/mL | Ciprofloxacin MIC + Peptide (P. aeruginosa PA41): 1 µg/mL | Peptide MIC + Ciprofloxacin (P. aeruginosa PA41): 16 µg/mL | Peptide MIC + Piperacillin (S. aureus 19 MRSA): 2 µg/mL | Piperacillin MIC + Peptide (S. aureus 19 MRSA): 64 µg/mL | Peptide MIC Alone (S. aureus 19 MRSA, Piperacillin section): >128 µg/mL | Ciprofloxacin MIC + Peptide (S. aureus SA25): 0.5 µg/mL | Peptide MIC + Ciprofloxacin (S. aureus SA25): 4 µg/mL | Amikacin MIC + Peptide (S. aureus SA025 MRSA): 2 µg/mL | Gentamicin MIC + Peptide (S. aureus SA025 MRSA): 32 µg/mL | Peptide MIC + Amikacin (S. aureus SA025 MRSA): 1 µg/mL | Peptide MIC + Gentamicin (S. aureus SA025 MRSA): 1 µg/mL | Ciprofloxacin MIC + Peptide (S. aureus SA93): 8 µg/mL | Peptide MIC + Ciprofloxacin (S. aureus SA93): 2 µg/mL | Peptide MIC + Piperacillin (S. aureus SB2MRSA): 2 µg/mL | Piperacillin MIC + Peptide (S. aureus SB2MRSA): 64 µg/mL | Peptide MIC Alone (S. aureus SB2MRSA, Piperacillin section): 32 µg/mL | Amikacin MIC + Peptide (S. epidermidis SE003): 4 µg/mL | Peptide MIC + Amikacin (S. epidermidis SE003): 64 µg/mL | Peptide MIC + Piperacillin (S. maltophilia 6): 16 µg/mL | Piperacillin MIC + Peptide (S. maltophilia 6): 64 µg/mL | Peptide MIC Alone (S. maltophilia 6, Piperacillin section): 128 µg/mL | Peptide MIC + Piperacillin (S. maltophilia 14): 16 µg/mL | Piperacillin MIC + Peptide (S. maltophilia 14): 4 µg/mL | Peptide MIC Alone (S. maltophilia 14, Piperacillin section): 32 µg/mL | Amikacin MIC + Peptide (S. maltophilia SMA018): 64 µg/mL | Peptide MIC + Amikacin (S. maltophilia SMA018): 4 µg/mL | Gentamicin MIC + Peptide (S. maltophilia SMA019): 16 µg/mL | Peptide MIC + Gentamicin (S. maltophilia SMA019): 4 µg/mL | Gentamicin MIC + Peptide (S. maltophilia SMA020): 16 µg/mL | Peptide MIC + Gentamicin (S. maltophilia SMA020): 4 µg/mL | Gentamicin MIC + Peptide (S. maltophilia SMA021): 16 µg/mL | Peptide MIC + Gentamicin (S. maltophilia SMA021): 4 µg/mL | Amikacin MIC + Peptide (S. maltophilia SMA022): 32 µg/mL | Peptide MIC + Amikacin (S. maltophilia SMA022): 32 µg/mL | Peptide MIC + Piperacillin (S. marcescens 1): 4 µg/mL | Piperacillin MIC + Peptide (S. marcescens 1): 16 µg/mL | Peptide MIC Alone (S. marcescens 1, Piperacillin section): >128 µg/mL | FIC (peptide + Amikacin, A. baumannii ABI001): 0.52 | FIC (peptide + Amikacin, A. baumannii ABI003): 0.52 | FIC (peptide + Amikacin, E. faecalis EFS008): 0.50 | FIC (peptide + Amikacin, E. faecium EFM004): 0.56 | FIC (peptide + Amikacin, P. aeruginosa PA022): 0.50 | FIC (peptide + Amikacin, S. aureus SA025 MRSA): 0.56 | FIC (peptide + Amikacin, S. epidermidis SE003): 0.38 | FIC (peptide + Amikacin, S. maltophilia SMA018): 0.50 | FIC (peptide + Amikacin, S. maltophilia SMA022): 0.25 | FIC (peptide + Ciprofloxacin, P. aeruginosa PA4): 0.50 | FIC (peptide + Ciprofloxacin, P. aeruginosa PA41): 0.50 | FIC (peptide + Ciprofloxacin, S. aureus SA25): 0.50 | FIC (peptide + Ciprofloxacin, S. aureus SA93): 0.38 | FIC (peptide + Gentamicin, A. baumannii ABI002): 0.56 | FIC (peptide + Gentamicin, P. aeruginosa PA022): 0.50 | FIC (peptide + Gentamicin, S. aureus SA025 MRSA): 0.63 | FIC (peptide + Gentamicin, S. maltophilia SMA019): 0.50 | FIC (peptide + Gentamicin, S. maltophilia SMA020): 0.50 | FIC (peptide + Gentamicin, S. maltophilia SMA021): 0.50 | FIC (peptide + Piperacillin, E. coli 1): 0.53 | FIC (peptide + Piperacillin, H. influenzae 1): 0.31 | FIC (peptide + Piperacillin, H. influenzae 2): 0.38 | FIC (peptide + Piperacillin, P. aeruginosa 23): 0.19 | FIC (peptide + Piperacillin, S. aureus 19 MRSA): 0.51 | FIC (peptide + Piperacillin, S. aureus SB2MRSA): 0.56 | FIC (peptide + Piperacillin, S. maltophilia 6): 0.38 | FIC (peptide + Piperacillin, S. maltophilia 14): 0.53 | FIC (peptide + Piperacillin, S. marcescens 1): 0.27
